Results on three molecules are retold here after US9212140B2, “(5s,8s)-3-(4′-chlor-3′-fluor-4-methlybiphenyl-3-yl)-4-hydroxy-8-methoxy-1-azaspiro[4.5] dec-3-en-2-one (compound A) for treatment” (Bayer Intellectual Property GmbH, priority 2011, dated 2015).

Data set [1] can be described thus: Maximum tolerated dose (MTD) determination, oral. The settings on record: for MTD at 21 days: 21-day treatment with 1 administration per day. It counts as in vivo, female nude mice (NMRI nu/nu). The procedure:
To this end, initially the maximum tolerable dose (MTD) was determined using the following protocol:
Over a period of 1, 2 or 3 weeks, a defined dose of the test substance was administered orally to female nude mice (NMRI-nude (nu/nu) mice, Taconic M&B A/S), and the mice were observed daily for mortality and body weight. The MTD was defined as the highest dose which could be administered without any animal dying during the treatment phase and the 7-day additional observation phase, and without any body weight loss of more than 10% compared to the initial weight.
Comparative Example C.1 was administered to female nude mice (NMRI nu/nu): • Dose: see Tab. 3 • Mode of administration: oral • Vehicle: PEG400/ethanol/Solutol HS 15(70/5/25, v/v/v) • (Solutol HS15: polyoxyethylene ester of 12-hydroxystearic acid) • Administration volume: 10 ml/kg • Scheme: see Tab. 3
The treatment phase was followed by an observation phase of 7 days.
Compound A was administered to female nude mice (NMRI nu/nu): • Dose: see Tab. 4 • Mode of administration: oral • Vehicle: PEG400/ethanol/Solutol HS 15(70/5/25, v/v/v) • Administration volume: 10 ml/kg • Scheme: see Tab. 4

In data set [2] the test system is human MCF-7 cells. The data set can be described thus: MCF-7 breast cancer xenograft model. It counts as in vivo, female nude mice (NMRI nu/nu). The conditions noted are these: for T/C (based on tumour area) / T/C (based on tumour weight): 30 days, once per day. As to the method: Xenograft models in immunosuppressed mice were used to determine the antitumour activity in living organisms.
Various xenograft models in which the test substances were administered in their MTD and in lower doses were then used to determine the antitumour activity. In addition to various other models, use was made primarily of the breast cancer model with hormone-dependent human MCF-7 cells in female nude mice (NMRI-nude (nu/nu) mice, Taconic M&B A/S). To this end, on the day prior to the implantation of the tumour cells, a pellet for releasing oestrogen (17β-oestradiol 0.36 mg, release over 60 days) was administered subcutaneously to the mice. The next day, 2 million tumour cells (suspended in medium+Matrigel) 1:1, final 0.1 ml) were then injected subcutaneously into the side of each animal. When the tumours extended to an area of 20-25 mm^2, the mice were randomized into therapy groups and therapy was initiated. The therapy was then continued until an average tumour size of 120 mm^2 had been reached in the control group, which had only been given the vehicle of the test substance, or in one of the treatment groups, with tumour area and body weight being measured 2-3 times per week. At this point in time, the experiment was terminated in all groups and the excised tumours were weighed.
The T/C value was calculated as primary success parameter either using the effect on the tumour weight or using the effect on the tumour area: mean tumour weight/area in the treatment group divided by mean of the tumour weight/area in the vehicle group.
Comparative Example C.1 was subsequently administered to female nude mice (NMRI nu/nu) in the MCF-7 breast cancer xenograft model: • Dose: 7.5 mg/kg • Mode of administration: oral • Vehicle: PEG400/ethanol/Solutol HS 15(70/5/25, v/v/v) • Administration volume: 10 ml/kg • Scheme: 27 days, 2 times per day (2 qd) • Mice: 10
Compound A was subsequently administered to female nude mice (NMRI nu/nu) in the MCF-7 breast cancer xenograft model: • Dose: see Tab. 5 • Mode of administration: oral • Vehicle: PEG400/ethanol/Solutol HS 15(70/5/25, v/v/v) • Administration volume: 10 ml/kg • Scheme: 30 days, once per day (qd) • Mice per dose group: 10-13
For the statistical evaluation of the experiment, the non-parametric ANOVA test was used for the T/C values based on the tumour area, since there was no normal distribution of the measured values. All therapy groups were then compared to the vehicle group using Dunns Post test. The resulting p values are shown in the table (ns: not significant=p>0.05). Since there was a normal distribution of the T/C values based on tumour weight, the ANOVA test for parametric values was used for analysis. All therapy groups were then compared to the vehicle group using the Bonferroni Post test.

For data set [3], the target named is T1, ACC2 (Homo sapiens (Human), UniProt O00763). Briefly: Human ACC2 enzyme assay A2 (HTRF ADP immunoassay). It counts as biochemical. The conditions noted are these: read-out: ACC 2 (=A2) IC50. The source says:
The ACC2 inhibition data were obtained using two different assays (A2 and B2)
Target sequence in this assay (O00763 39-2458 limits assumed): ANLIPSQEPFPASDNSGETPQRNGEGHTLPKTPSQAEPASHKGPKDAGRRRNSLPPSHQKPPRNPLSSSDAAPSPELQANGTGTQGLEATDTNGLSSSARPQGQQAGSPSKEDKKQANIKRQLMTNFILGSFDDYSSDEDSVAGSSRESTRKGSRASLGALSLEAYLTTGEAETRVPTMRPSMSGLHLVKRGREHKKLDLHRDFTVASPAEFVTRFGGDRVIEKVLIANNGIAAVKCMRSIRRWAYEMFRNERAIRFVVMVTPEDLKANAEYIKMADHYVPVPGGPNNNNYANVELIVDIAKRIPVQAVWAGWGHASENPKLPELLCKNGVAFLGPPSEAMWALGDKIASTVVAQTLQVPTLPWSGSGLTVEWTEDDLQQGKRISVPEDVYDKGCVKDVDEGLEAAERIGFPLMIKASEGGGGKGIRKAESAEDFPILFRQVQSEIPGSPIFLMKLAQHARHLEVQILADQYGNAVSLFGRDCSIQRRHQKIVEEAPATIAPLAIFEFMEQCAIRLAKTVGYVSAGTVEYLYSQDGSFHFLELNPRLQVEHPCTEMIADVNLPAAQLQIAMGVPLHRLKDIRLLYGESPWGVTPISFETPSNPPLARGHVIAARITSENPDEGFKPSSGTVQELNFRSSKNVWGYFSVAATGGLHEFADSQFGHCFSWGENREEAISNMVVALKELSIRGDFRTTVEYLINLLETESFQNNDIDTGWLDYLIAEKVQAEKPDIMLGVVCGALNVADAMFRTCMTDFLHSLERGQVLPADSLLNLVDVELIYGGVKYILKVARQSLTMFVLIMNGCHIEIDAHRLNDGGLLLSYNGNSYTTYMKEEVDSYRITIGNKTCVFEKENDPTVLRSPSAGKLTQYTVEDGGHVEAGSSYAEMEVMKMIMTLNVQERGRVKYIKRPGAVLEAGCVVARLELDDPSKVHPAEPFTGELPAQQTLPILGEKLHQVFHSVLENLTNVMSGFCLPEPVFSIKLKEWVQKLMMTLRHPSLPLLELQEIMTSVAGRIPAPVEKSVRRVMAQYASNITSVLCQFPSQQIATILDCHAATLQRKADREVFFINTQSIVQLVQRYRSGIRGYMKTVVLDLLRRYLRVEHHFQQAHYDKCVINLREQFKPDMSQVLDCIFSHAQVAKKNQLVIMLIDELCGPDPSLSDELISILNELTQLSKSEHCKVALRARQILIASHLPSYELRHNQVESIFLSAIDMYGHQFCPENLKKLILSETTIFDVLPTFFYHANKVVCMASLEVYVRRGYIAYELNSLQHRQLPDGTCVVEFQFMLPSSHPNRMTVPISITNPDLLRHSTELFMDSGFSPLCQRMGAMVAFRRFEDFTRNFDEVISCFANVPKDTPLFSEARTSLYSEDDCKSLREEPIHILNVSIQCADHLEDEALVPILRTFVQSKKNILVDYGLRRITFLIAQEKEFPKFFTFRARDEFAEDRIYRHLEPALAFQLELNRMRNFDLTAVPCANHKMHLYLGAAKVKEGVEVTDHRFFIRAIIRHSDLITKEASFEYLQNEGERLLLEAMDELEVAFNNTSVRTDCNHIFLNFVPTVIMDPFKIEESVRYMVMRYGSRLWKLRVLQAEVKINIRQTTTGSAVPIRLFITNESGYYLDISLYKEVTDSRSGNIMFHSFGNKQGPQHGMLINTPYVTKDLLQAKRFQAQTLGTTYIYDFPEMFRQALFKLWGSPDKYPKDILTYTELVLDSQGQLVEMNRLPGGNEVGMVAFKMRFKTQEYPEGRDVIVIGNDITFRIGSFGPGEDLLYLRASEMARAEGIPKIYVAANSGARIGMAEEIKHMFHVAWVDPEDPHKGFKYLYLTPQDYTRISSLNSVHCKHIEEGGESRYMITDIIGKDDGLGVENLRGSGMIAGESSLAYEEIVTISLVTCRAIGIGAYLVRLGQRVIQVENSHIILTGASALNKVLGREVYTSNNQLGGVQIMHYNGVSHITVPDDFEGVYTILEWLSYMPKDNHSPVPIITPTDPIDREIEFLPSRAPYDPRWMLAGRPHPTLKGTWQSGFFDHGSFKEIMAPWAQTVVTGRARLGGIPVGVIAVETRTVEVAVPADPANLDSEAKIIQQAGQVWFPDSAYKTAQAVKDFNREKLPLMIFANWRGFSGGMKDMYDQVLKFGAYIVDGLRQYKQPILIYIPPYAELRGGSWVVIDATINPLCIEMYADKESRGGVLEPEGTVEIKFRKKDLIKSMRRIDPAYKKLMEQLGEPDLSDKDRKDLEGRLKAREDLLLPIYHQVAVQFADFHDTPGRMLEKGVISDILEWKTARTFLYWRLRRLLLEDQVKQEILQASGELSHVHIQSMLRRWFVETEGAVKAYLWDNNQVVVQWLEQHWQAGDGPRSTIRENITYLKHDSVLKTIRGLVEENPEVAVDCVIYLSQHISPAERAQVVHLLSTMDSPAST

Data set [4] deals with T1, ACC2. Briefly: Human ACC2 enzyme assay B2 (ADP-Glo). The settings on record: read-out: ACC 2 (=B2) IC50. It counts as biochemical. (In ADP-Glo the light output rises with the ADP produced.)
Target sequence in this assay (O00763 27-2458 limits assumed): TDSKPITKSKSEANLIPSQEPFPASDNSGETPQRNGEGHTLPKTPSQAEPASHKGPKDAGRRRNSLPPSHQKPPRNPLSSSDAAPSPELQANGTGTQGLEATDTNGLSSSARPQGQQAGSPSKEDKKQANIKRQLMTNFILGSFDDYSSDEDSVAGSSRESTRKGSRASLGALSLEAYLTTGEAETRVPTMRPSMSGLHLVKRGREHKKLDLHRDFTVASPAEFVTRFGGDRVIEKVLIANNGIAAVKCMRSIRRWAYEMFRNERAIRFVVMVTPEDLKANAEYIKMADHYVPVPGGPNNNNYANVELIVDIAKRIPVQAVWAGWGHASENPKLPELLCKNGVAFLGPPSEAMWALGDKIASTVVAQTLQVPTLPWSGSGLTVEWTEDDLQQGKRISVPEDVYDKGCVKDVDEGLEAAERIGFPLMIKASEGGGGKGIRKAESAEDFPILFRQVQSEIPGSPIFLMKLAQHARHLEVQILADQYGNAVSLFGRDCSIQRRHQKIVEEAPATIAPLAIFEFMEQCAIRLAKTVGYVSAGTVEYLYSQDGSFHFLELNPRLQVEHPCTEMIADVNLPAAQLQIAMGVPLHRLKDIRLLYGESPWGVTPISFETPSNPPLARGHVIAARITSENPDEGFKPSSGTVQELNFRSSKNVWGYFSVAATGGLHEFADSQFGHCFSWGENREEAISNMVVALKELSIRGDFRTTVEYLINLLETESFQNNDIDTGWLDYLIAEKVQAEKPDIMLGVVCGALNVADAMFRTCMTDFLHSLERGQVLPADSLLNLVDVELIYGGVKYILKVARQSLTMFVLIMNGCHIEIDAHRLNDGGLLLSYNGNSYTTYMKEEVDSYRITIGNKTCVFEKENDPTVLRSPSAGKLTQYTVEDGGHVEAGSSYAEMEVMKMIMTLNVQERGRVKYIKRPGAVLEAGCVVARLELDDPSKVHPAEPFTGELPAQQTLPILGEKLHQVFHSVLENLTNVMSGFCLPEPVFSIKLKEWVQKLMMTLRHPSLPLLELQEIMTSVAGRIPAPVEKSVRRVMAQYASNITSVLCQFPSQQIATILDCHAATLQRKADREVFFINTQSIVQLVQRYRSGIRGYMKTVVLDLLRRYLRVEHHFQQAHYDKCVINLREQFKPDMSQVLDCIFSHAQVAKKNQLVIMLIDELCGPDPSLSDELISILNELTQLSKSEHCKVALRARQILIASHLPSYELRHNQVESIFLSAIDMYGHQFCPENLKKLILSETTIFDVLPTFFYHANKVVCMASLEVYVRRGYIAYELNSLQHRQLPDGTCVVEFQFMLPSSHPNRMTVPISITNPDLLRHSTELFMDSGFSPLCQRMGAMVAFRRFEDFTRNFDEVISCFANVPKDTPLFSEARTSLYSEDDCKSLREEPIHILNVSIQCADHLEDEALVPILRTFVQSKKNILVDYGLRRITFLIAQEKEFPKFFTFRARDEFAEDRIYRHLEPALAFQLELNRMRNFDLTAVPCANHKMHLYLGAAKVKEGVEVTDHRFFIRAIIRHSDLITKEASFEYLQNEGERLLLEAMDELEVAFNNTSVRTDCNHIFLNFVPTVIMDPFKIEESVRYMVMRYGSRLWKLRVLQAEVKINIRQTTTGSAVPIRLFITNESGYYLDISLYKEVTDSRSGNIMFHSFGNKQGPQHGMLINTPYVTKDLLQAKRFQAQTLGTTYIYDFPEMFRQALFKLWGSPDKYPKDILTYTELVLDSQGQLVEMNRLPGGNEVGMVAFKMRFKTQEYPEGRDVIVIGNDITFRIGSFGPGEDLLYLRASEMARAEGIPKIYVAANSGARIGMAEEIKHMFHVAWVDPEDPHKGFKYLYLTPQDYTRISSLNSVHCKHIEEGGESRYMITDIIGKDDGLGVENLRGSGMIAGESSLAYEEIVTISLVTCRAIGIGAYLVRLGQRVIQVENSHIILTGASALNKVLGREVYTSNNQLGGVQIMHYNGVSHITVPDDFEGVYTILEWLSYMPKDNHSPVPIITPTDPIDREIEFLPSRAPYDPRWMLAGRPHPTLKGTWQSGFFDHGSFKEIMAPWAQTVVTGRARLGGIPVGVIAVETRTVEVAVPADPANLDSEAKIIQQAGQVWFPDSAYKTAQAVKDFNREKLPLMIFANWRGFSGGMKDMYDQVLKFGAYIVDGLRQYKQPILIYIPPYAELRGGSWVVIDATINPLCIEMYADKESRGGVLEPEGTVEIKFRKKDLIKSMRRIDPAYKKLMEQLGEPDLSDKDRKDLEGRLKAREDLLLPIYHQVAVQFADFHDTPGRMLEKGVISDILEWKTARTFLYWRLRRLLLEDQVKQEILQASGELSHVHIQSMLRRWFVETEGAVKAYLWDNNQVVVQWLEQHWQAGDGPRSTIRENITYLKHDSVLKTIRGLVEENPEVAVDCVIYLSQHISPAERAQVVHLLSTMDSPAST
Method: Essentially, the enzyme activity is measured by quantifying the adenosine diphosphate (ADP) formed as a byproduct of the enzyme reactions using the ADP-Glo™ detection system from Promega. In this test, initially the adenosine triphosphate (ATP) not consumed in the enzyme reaction is converted quantitatively with an adenylate cyclase (“ADP-GLO reagent”) into cAMP, the adenylate cyclase is then stopped and (“kinase detection reagent”) the ADP formed is subsequently converted into ATP, which is converted in a luciferase-based reaction into a glow luminescence signal.
Typical concentrations were in the range of 2 ng/μl. […] The amount of light emitted was taken as a measure for the amount of ADP formed and thus for the enzyme activity of the hACC2.
The test system of data set [5] is BxPC3. Briefly: Cell assay, tumour cell proliferation (CellTiter-Glo, 96 h). It counts as cell-based. The conditions noted are these: Homo sapiens, BXPC-3; 96-hour incubation. The procedure: (§1) In accordance with the invention, the substances were tested in cell-based assays for the ability of the substances of inhibiting tumour cell proliferation after a 96-hour incubation with the substance. Cell viability was tested using the CellTiter-Glo® luminescent cell viability assay (Promega). The cells were sown at a density of 2000-5000 cells/well (depending on the cell line) in 100 μl growth medium on 96-well microtitre plates. For each cell line examined, cells were sown on a separate plate to determine the luminescence at t=0 hours and t=96 hours. After overnight incubation at 37° C., the luminescence values for the t=0 samples were determined. The dose plates for the t=96 hours points in time were treated with substances diluted with growth medium. The cells were then incubated at 37° C. for 96 hours, and the luminescence values for the t=96 hours sample were then determined/For data analysis, the t=0 values were subtracted from the t=96 hour values for treated and untreated samples. The differences in luminescence in percent between substance-treated samples and control values were used to determine the growth inhibition in percent.
(§2) The substances were tested in the following cell lines which represent the stated indications in an exemplary manner: […]

Data set [6] has as its system DAN-G. The description is as above. The conditions noted are these: 96-hour incubation. It counts as cell-based. As to the method: as §1, §2
In data set [7] the test system is BT-20. The data set is described as above. It counts as cell-based. The conditions noted are these: Homo sapiens, 96-hour incubation. The procedure: as §1, §2
Data set [8] concerns CAL-120. The data set is described as above. It counts as cell-based. The conditions noted are these: Homo sapiens, 96-hour incubation. The procedure:
as §1, §2

The test system of data set [9] is SNU16. The description is as above. It counts as cell-based. The settings on record: Homo sapiens, SNU-16; 96-hour incubation. As to the method:
as §1, §2

Data set [10] has as its system H460. Described as above. It counts as cell-based. The settings on record: Homo sapiens, NCI-H460; 96-hour incubation. The procedure:
as §1, §2

The subject of data set [11] is LNCaP. Described as above. It counts as cell-based. The settings on record: Homo sapiens, 96-hour incubation. The procedure: as §1, §2
Where [12] appears, read: 7.5 mg/kg oral 2 qd, up to day 37 of the experiment.

Structures are written as SMILES.

One may read the MTD as the largest dose that counted as tolerated. High values mean a wide tolerated range, low ones a narrow tolerated range. Regarding `CO[C@H]1CC[C@]2(CC1)NC(=O)C(c1cc(-c3ccc(Cl)cc3)ccc1C)=C2O` [Comparative Example C.1, (5s,8s)-3-(4′-chloro-4-methylbiphenyl-3-yl)-4-hydroxy-8-methoxy-1-azaspiro[4.5]dec-3-en-2-one], the Deaths in [1] (10 mg/kg oral, 14 days, 2 times a day) is on record as 1 of 3; in data set [1] (15 mg/kg oral, 21 days, once per day (Table 3)), 1 of 5; in data set [1] (20 mg/kg oral, 14 days, 2 times a day) it was 2 of 3; in [1] (20 mg/kg oral, 21 days, once per day (Table 3)) it was 1 of 5; in data set [1] (25 mg/kg oral, 21 days, once per day (Table 3)), 1 of 5; in [1] (30 mg/kg oral, 14 days, 2 times a day) it was 2 of 3. In addition, the Deaths is given as 1 of 4 in [2] (continued with 10 mg/kg 2 qd up to day 43) and 4 of 5 in data set [2] (continued with 12.5 mg/kg 2 qd up to day 43). This molecule returned a maximum tolerated dose (MTD) at 14 days in data set [1] (female, NMRI nu/nu, mouse, in vivo, po, 14-day treatment with 2 administrations per day) of under 10 mg/kg. In data set [1] (female, NMRI nu/nu, mouse, in vivo, po), this molecule had an MTD at 21 days of under 15 mg/kg. Further, the animals died in data set [2] (setting [12]) was 1 of 10. In data set [2] (setting [12]), the bodyweight loss result was “low bodyweight loss”. The “T/C value based on tumour area” value in data set [2] (7.5 mg/kg oral, 27 days, 2 times per day (2 qd)) was 0.86.

For orientation: IC50 means the concentration needed to halve the response being measured. Consider `COC1CCC2(C=C(c3cc(-c4ccc(Cl)c(Cl)c4)ccc3C)C(=O)N2)CC1` (stereo not shown) [Comparative Example C.2], for which the IC50 in data set [3] was found to be 1410 nM; in data set [4] it was 2610 nM.

Take `CO[C@H]1CC[C@]2(CC1)NC(=O)C(c1cc(-c3ccc(Cl)c(F)c3)ccc1C)=C2O` [Compound A, (5s,8s)-3-(4′-chloro-3′-fluoro-4-methylbiphenyl-3-yl)-4-hydroxy-8-methoxy-1-azaspiro[4.5]dec-3-en-2-one]: the IC50 in [5] worked out at 165 nM; in data set [6], 184 nM; in data set [7] it was 187 nM; in [8], 266 nM; in [9] it was 164 nM; in [10] it was 201 nM. The molecule also came in with an IC50 in [11] of 334 nM. Besides, the Deaths is given as 0 of 5 in [1] (20 mg/kg oral, 21 days, once per day (Table 4)); 0 of 5 in data set [1] (30 mg/kg oral, 21 days, once per day (Table 4)); 1 of 5 in [1] (40 mg/kg oral, 21 days, once per day (Table 4)); 5 of 5 in data set [1] (50 mg/kg oral, 21 days, once per day (Table 4)); 5 of 5 in data set [1] (60 mg/kg oral, 21 days, once per day (Table 4)). For the same molecule, the MTD at 21 days in data set [1] (female, NMRI nu/nu (nude), mouse, in vivo, po) is under 40 mg/kg. Further, the “T/C (based on tumour area)” value is 0.56 (ns) in data set [2] (20 mg/kg oral), 0.51 (p < 0.05) in [2] (25 mg/kg oral), 0.49 (p < 0.05) in [2] (30 mg/kg oral) and 0.44 (p < 0.05) in data set [2] (35 mg/kg oral). Also, the “T/C (based on tumour weight)” value in data set [2] (20 mg/kg oral) was 0.42 (p = 0.003); in data set [2] (25 mg/kg oral), 0.37 (p < 0.001); in data set [2] (30 mg/kg oral) it was 0.35 (p < 0.001); in data set [2] (35 mg/kg oral), 0.31 (p < 0.001). Also, the “antitumoral efficacy (in words)” value in data set [2] (MCF-7 xenograft, summary statement) is “biologically meaningful and significant antitumoral effects”.
